The values that follow come from ChEMBL document CHEMBL4190189, “Exploring Jolkinol D Derivatives To Overcome Multidrug Resistance in Cancer” (J Nat Prod, 2017).

For series [1], the species on record is Homo sapiens. Nature of the series: Induction of apoptosis in human EPG85-257RDB cells assessed as caspase-3 activation at 30 uM after 72 hrs by flow cytometric method relative to control. The format is functional. For orientation: Flow cytometry measures light scatter and fluorescence of single cells or particles in a stream.
The nature of series [2]: Cytotoxicity against human EPG85-257RNOV cells assessed as reduction in cell viability after 5 days by SRB assay. Format: functional, cell-based. The conditions noted are these: 120 h. For orientation: The SRB assay estimates cell density from bound dye.
Series [3] has as its system L5178Y. Nature of the series: Cytotoxicity against mouse L5178Y cells assessed as reduction in cell viability after 72 hrs by MTT assay. The format is cell-based. On the technique in general: Tetrazolium assays rely on reduction of a dye to a coloured formazan, in cell work by metabolically active cells.
For series [4], the species on record is Homo sapiens. Nature of the series: Induction of apoptosis in human EPG85-257RNOV cells at 30 uM after 72 hrs by annexin-V/propidium iodide staining based flow cytometric method relative to control. The format is functional.
Series [5] is described as follows: Cytotoxicity against human EPG85-257RDB cells assessed as reduction in cell viability after 5 days by SRB assay. Format: functional, cell-based. Conditions: 120 h.
Series [6] in a line: Cytotoxicity against human EPG85-257P cells assessed as reduction in cell viability after 5 days by SRB assay. The format is cell-based. The conditions noted are these: 120 h.
Series [7] concerns L5178Y. As to the kind of experiment: Cytotoxicity against mouse L5178Y cells transfected with human ABCB1 assessed as reduction in cell viability after 72 hrs by MTT assay. Format: functional, cell-based.
A short description of series [8]: Induction of apoptosis in human EPG85-257P cells at 30 uM after 72 hrs by annexin-V/propidium iodide staining based flow cytometric method relative to control. Format: cell-based.
Series [9] is described as follows: Resistance ratio of IC50 for human EPG85-257P cells to IC50 for human EPG85-257RDB cells. The format is functional.
Series [10] concerns the target T1, ATP-dependent translocase ABCB1 (Homo sapiens, UniProt P08183). Nature of the series: Modulation of human ABCB1 expressed in mouse L5178Y cells assessed as fluorescence activity ratio at 2 uM pretreated for 10 mins followed by rhodamine-123 addition measured after 20 mins by flow cytometry (reference value: 0.87). Format: cell-based.
The nature of series [11]: Induction of apoptosis in human EPG85-257P cells assessed as caspase-3 activation at 30 uM after 72 hrs by flow cytometric method relative to control. The conditions noted are these: 72 h, 30 µM. Format: cell-based.
The species named for series [12] is Homo sapiens. As to the kind of experiment: Induction of apoptosis in human EPG85-257RDB cells at 30 uM after 72 hrs by annexin-V/propidium iodide staining based flow cytometric method relative to control. Format: functional.
Series [13] is filed under the species Homo sapiens. As to the kind of experiment: Induction of apoptosis in human EPG85-257RNOV cells assessed as caspase-3 activation at 30 uM after 72 hrs by flow cytometric method relative to control. Format: functional.
In series [14] the target is T1, ATP-dependent translocase ABCB1. As to the kind of experiment: Modulation of human ABCB1 expressed in mouse L5178Y cells assessed as fluorescence activity ratio at 20 uM pretreated for 10 mins followed by rhodamine-123 addition measured after 20 mins by flow cytometry (reference value: 0.87). The format is cell-based.
The target is the same in series [15]. As to the kind of experiment: Inhibition of human ABCB1 expressed in mouse L5178Y cells assessed as potentiation of doxorubicin-induced cytotoxicity by measuring combination index at 18:1 compound to doxorubicin ratio after 48 hrs by MTT assay. Format: cell-based.
Series [16] has the same target. As to the kind of experiment: Inhibition of human ABCB1 expressed in mouse L5178Y cells assessed as potentiation of doxorubicin-induced cytotoxicity by measuring combination index at 200:1 compound to doxorubicin ratio after 48 hrs by MTT assay. Format: cell-based.
The nature of series [17]: Resistance ratio of IC50 for human EPG85-257P cells to IC50 for human EPG85-257RNOV cells. The format is functional.
Series [18] can be described thus: Resistance ratio of IC50 for human EPP85-181P cells to IC50 for human EPP85-181RDB cells. Format: functional.

Active and inactive are the calls of the source. The calls are words filed in the database; no cut-off is given here. Some results are limits rather than exact numbers.

T1 sequence (P08183 whole entry): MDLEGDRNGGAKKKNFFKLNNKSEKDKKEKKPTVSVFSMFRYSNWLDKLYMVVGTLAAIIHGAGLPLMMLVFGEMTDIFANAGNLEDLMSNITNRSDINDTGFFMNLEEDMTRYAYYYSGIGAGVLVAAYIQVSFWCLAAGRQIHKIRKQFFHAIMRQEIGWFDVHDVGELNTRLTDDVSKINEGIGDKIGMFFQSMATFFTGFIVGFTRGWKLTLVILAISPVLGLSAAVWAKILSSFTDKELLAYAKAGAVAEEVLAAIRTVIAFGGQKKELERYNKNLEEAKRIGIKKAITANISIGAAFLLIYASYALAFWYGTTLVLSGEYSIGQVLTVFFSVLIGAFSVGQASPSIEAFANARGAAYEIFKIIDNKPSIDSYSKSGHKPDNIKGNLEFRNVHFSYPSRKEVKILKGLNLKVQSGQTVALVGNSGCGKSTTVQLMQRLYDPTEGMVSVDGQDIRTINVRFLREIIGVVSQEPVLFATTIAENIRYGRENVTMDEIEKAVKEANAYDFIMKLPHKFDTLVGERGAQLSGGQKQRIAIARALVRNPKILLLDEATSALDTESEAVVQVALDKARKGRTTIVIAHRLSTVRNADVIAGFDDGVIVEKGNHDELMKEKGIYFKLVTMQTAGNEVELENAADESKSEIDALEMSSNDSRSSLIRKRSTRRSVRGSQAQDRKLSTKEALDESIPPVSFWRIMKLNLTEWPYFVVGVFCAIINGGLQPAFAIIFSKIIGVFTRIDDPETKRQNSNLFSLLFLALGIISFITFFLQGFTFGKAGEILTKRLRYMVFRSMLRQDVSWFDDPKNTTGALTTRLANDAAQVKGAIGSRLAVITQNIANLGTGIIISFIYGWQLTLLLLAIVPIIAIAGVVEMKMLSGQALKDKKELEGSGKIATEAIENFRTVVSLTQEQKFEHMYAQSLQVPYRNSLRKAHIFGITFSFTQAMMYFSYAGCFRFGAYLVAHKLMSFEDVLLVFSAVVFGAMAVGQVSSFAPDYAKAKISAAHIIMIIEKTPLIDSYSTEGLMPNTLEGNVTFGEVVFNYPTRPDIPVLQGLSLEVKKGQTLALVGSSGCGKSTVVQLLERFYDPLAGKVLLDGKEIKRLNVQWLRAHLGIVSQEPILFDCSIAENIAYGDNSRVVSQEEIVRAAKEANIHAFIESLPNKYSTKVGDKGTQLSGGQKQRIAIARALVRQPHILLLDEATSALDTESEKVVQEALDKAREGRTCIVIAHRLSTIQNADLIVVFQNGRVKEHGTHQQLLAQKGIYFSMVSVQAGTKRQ

As for `CC(=O)O[C@]12C[C@H](C)[C@H](OC(=O)Oc3ccccc3)[C@@H]1/C=C(/C)CC[C@H]1[C@@H](/C=C(\C)C2=O)C1(C)C`, the result in the series listed under Homo sapiens [1], in the series filed under Homo sapiens [4], in the series listed under Homo sapiens [12] and in the series listed under Homo sapiens [13] was Active. Further, the 50% inhibitory concentration (IC50) in series [2] was 5.55 µM; in the series on L5178Y [3], > 19 µM; in series [5], 2340 nM; in [6] it was 6.24 µM; in the series with L5178Y [7] it was > 19 µM. Also, the Activity result in series [8] and in series [11] was “Toxic” in each case. The “Ratio IC50” value in [9] was 0.4. Besides, the Ratio stood at 10.8 in [10] and 19.5 in series [14]. For the same molecule, the CI in series [15] worked out at 0.5.
With `C/C1=C/[C@H]2[C@@H](OC(=O)c3ccc4ccccc4c3)[C@@H](C)C[C@]2(O)C(=O)/C(C)=C/[C@@H]2[C@H](CC1)C2(C)C`, the results for the half-inhibitory concentration (IC50) (in series [2]; in the series on L5178Y [3]; in the series with L5178Y [7]) were < 10 µM, > 19 µM and > 19 µM, respectively. Moreover, the CI in series [16] is given as 0.2. The “Ratio IC50” value in series [17] was 0.4; in series [9], 0.3; in series [18], 0.3. Moreover, the Ratio in series [10] came to 8.3; in series [14], 16.7.

In general, IC50 refers to the concentration that inhibits the measured activity by half.
